Data on ten compounds can be found in ChEMBL document CHEMBL1201862, “PubChem BioAssay data set” (2004).

Among the test systems are HCC 2998; NCI-H226; UACC-257; LOX IMVI; A498; OVCAR-3; SNB-75; HL-60; NCI-H460; SNB-19; HOP-92; SF-268; ACHN; OVCAR-5; UO-31; SK-MEL-28; MDA-MB-231; MCF7; KM12; CCRF-CEM.
What all share (assay): NCI tumour cell line growth inhibition, 48 h

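Following 48 hours of exposure in 96-well plates, responses at five concentrations were used to interpolate endpoints linearly. Here, GI50 denotes the concentration required for 50% inhibition of growth.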 Active and inactive are the calls of the source. Cut-off read from the data, not from the text of the source: active = GI50 up to about 1.1 µM and inactive = higher. Bounds are passed on as bounds.

In the case of `C[N+](C)(C)CCN[N+]1(C)CCCc2ccccc21` (configuration not stated), the GI50 with HCC 2998 was > 100 µM (inactive); in the assay with NCI-H226, 54.1 µM (inactive); with UACC-257 it was > 100 µM (inactive); in the assay with LOX IMVI, > 100 µM (inactive); in the assay on A498 it was 17.7 µM (inactive); in the assay with OVCAR-3, > 100 µM (inactive). The GI50 was > 100 µM (inactive) with SNB-75; 0.67 µM (active) in the assay with HL-60; > 100 µM (inactive) with NCI-H460; > 100 µM (inactive) with SNB-19; > 100 µM (inactive) in the assay with HOP-92; > 100 µM (inactive) in the assay on SF-268. Moreover, the GI50 in the assay with ACHN, with OVCAR-5, in the assay with UO-31, with SK-MEL-28, in the assay on MDA-MB-231 and in the assay on MCF7 was > 100 µM (inactive) each time. The GI50 in the assay on KM12 is > 100 µM (inactive).
In the case of `O=C(CN1C(=O)c2ccccc2C1=O)C(O)CN1C(=O)c2ccccc2C1=O` (configuration not stated), the GI50 is > 100 µM (inactive) in the assay with HCC 2998; 73.8 µM (inactive) in the assay with NCI-H226; > 100 µM (inactive) in the assay with UACC-257; 92.3 µM (inactive) in the assay on LOX IMVI; 87.1 µM (inactive) in the assay on A498; > 100 µM (inactive) in the assay with OVCAR-3. Moreover, the GI50 is 16 µM (inactive) in the assay with SNB-75; 44.7 µM (inactive) in the assay on HL-60; > 100 µM (inactive) in the assay with NCI-H460; 50.7 µM (inactive) with SNB-19; 32.4 µM (inactive) in the assay on HOP-92; 23.5 µM (inactive) with SF-268. Also, the GI50 in the assay on ACHN is 20 µM (inactive); in the assay with OVCAR-5, > 100 µM (inactive); in the assay with UO-31, 73.3 µM (inactive); in the assay with SK-MEL-28, > 100 µM (inactive); in the assay on MDA-MB-231 it was 22.5 µM (inactive); in the assay with MCF7, > 100 µM (inactive). The GI50 in the assay on KM12 was 84.1 µM (inactive).
For the compound `COC1(OC)CC(CO)(CNc2nc(N)nc(Cl)c2/C=N\O)C1`, the GI50 in the assay with HCC 2998 is > 100 µM (inactive); with NCI-H226, 29.6 µM (inactive); with UACC-257, 27.7 µM (inactive); in the assay on LOX IMVI it was 22.7 µM (inactive); in the assay on A498, 18.5 µM (inactive); with OVCAR-3, 21.7 µM (inactive). Besides, the GI50 in the assay with SNB-75 is 48.8 µM (inactive); in the assay on HL-60 it was 39.3 µM (inactive); in the assay with NCI-H460, 37.4 µM (inactive); in the assay on SNB-19, 40.7 µM (inactive); with HOP-92 it was 13.6 µM (inactive); in the assay on SF-268 it was > 100 µM (inactive). For the same compound, the GI50 with ACHN is 24.6 µM (inactive); in the assay with OVCAR-5, 20.7 µM (inactive); in the assay on CCRF-CEM, 47.1 µM (inactive); with UO-31, 39.2 µM (inactive); in the assay with SK-MEL-28, 48.9 µM (inactive); in the assay on MDA-MB-231, 72.9 µM (inactive). For the same compound, the figures for the GI50 in the assay on MCF7 and in the assay with KM12 were 24.1 µM (inactive) and 7.05 µM (inactive), respectively.
Regarding `COc1cccc(OCC(=N/NC(=O)c2ccncc2)/N=C/c2cccnc2)c1`, the GI50 in the assay with HCC 2998, in the assay on NCI-H226, with UACC-257, with LOX IMVI, with A498 and in the assay on OVCAR-3 was > 100 µM (inactive) each time. Also, the GI50 in the assay on SNB-75 was > 100 µM (inactive); in the assay with HL-60, > 100 µM (inactive); in the assay on NCI-H460 it was > 100 µM (inactive); in the assay on SNB-19, > 100 µM (inactive); with HOP-92, 21 µM (inactive); in the assay with SF-268 it was > 100 µM (inactive). Further, the GI50 in the assay with ACHN, in the assay on OVCAR-5, with CCRF-CEM, in the assay on SK-MEL-28, in the assay on MDA-MB-231 and in the assay with MCF7 was > 100 µM (inactive) in each case. Also, the GI50 in the assay on KM12 is > 100 µM (inactive).
On to `CCCCCCCC/C=C\CCCCCCC(F)C(=O)O` (configuration not stated), for which the GI50 in the assay with HCC 2998, in the assay with NCI-H226, in the assay on UACC-257, in the assay with LOX IMVI, in the assay on A498 and in the assay on OVCAR-3 was > 12.5 µM (inactive) each time. Besides, the GI50 in the assay on SNB-75, with HL-60, in the assay on SNB-19, in the assay with HOP-92, with SF-268 and with ACHN was > 12.5 µM (inactive) each time. Also, the GI50 in the assay with OVCAR-5, in the assay with CCRF-CEM, with UO-31, with SK-MEL-28, in the assay on MDA-MB-231 and with MCF7 was > 12.5 µM (inactive) in each case. Further, the GI50 in the assay on KM12 is > 12.5 µM (inactive).
Consider `C[C@]12CC[C@@H]3c4ccc(O)cc4CC[C@H]3[C@@H]1CC[C@@H]2OC(=O)CCc1ccccc1`, for which the GI50 with HCC 2998 is 19.6 µM (inactive); in the assay on NCI-H226, 19.1 µM (inactive); with UACC-257 it was 17.9 µM (inactive); in the assay on LOX IMVI, 18.2 µM (inactive); in the assay with A498 it was 17.4 µM (inactive); in the assay on OVCAR-3, 20.5 µM (inactive). Also, the GI50 with SNB-75 was 15.1 µM (inactive); in the assay with HL-60, 20.1 µM (inactive); with NCI-H460 it was 19.1 µM (inactive); in the assay on SNB-19, 18.5 µM (inactive); in the assay on HOP-92, 19.1 µM (inactive); with SF-268 it was 17.8 µM (inactive). For the same compound, the GI50 is 18.7 µM (inactive) in the assay on ACHN; 44.4 µM (inactive) with OVCAR-5; 22.5 µM (inactive) in the assay with CCRF-CEM; 16 µM (inactive) with UO-31; 20.1 µM (inactive) with SK-MEL-28; 17.1 µM (inactive) with MDA-MB-231. Also, the GI50 was 17.5 µM (inactive) in the assay with MCF7 and 27.7 µM (inactive) in the assay with KM12.
On to `CC(C)CC1C(=O)NCCC(NC(=O)C(N)Cc2ccc(O)cc2)C(=O)NC(Cc2ccccc2)C(=O)NC(Cc2ccccc2)NC1=O` (configuration not stated), for which the GI50 with HCC 2998, in the assay on NCI-H226, with UACC-257, in the assay on LOX IMVI, in the assay on A498 and in the assay with OVCAR-3 was > 100 µM (inactive) throughout. The GI50 with SNB-75 is > 100 µM (inactive); with HL-60 it was > 100 µM (inactive); in the assay with NCI-H460, > 100 µM (inactive); with SNB-19 it was > 100 µM (inactive); in the assay on HOP-92, 72.9 µM (inactive); with SF-268 it was > 100 µM (inactive). Also, the GI50 in the assay on ACHN, in the assay on OVCAR-5, with CCRF-CEM, in the assay with UO-31, in the assay with SK-MEL-28 and with MDA-MB-231 was > 100 µM (inactive) throughout. Besides, the GI50 in the assay on MCF7 and with KM12 was > 100 µM (inactive) in each case.
Regarding `OCc1ccccc1O[C@H]1O[C@H](CO)[C@@H](O)[C@H](O)[C@H]1O`, the GI50 in the assay with HCC 2998, in the assay with NCI-H226, in the assay with UACC-257, in the assay on LOX IMVI, in the assay on A498 and with OVCAR-3 was > 100 µM (inactive) in each case. For the same compound, the GI50 in the assay on SNB-75, in the assay with HL-60, in the assay with NCI-H460, in the assay on HOP-92, in the assay on SF-268 and with ACHN was > 100 µM (inactive) throughout. The GI50 with OVCAR-5, in the assay on CCRF-CEM, in the assay on UO-31, with SK-MEL-28, in the assay with MDA-MB-231 and in the assay with MCF7 was > 100 µM (inactive) throughout. Further, the GI50 in the assay on KM12 is > 100 µM (inactive).
As for `CCC1(O)C(=O)OCc2c1cc1n(c2=O)Cc2cc3cc(N)ccc3nc2-1` (configuration not stated), the GI50 is 0.0345 µM (active) with HCC 2998; < 0.0338 µM (active) in the assay with NCI-H226; < 0.01 µM (active) in the assay with LOX IMVI; 0.125 µM (active) in the assay with A498; 0.0466 µM (active) in the assay with OVCAR-3; < 0.01 µM (active) in the assay on SNB-75. For the same compound, the GI50 was < 0.01 µM (active) in the assay on HL-60; < 0.01 µM (active) with NCI-H460; < 0.01 µM (active) in the assay with SNB-19; 0.0535 µM (active) in the assay with HOP-92; < 0.01 µM (active) in the assay with SF-268; < 0.01 µM (active) in the assay with ACHN. Further, the GI50 was < 0.0271 µM (active) in the assay with OVCAR-5; < 0.01 µM (active) in the assay on CCRF-CEM; < 0.01 µM (active) with UO-31; 0.516 µM (active) in the assay on MDA-MB-231; < 0.01 µM (active) in the assay with MCF7; 0.0593 µM (active) with KM12.
Regarding `Cc1cc(C)c2c(O)cc(-c3cccc(Cl)c3)nc2n1`, the GI50 was 0.403 µM (active) in the assay with HCC 2998; 0.391 µM (active) in the assay on NCI-H226; 1.95 µM (inactive) in the assay with UACC-257; 0.273 µM (active) with LOX IMVI; 0.514 µM (active) in the assay on A498; 0.106 µM (active) with OVCAR-3. Further, the GI50 in the assay with SNB-75 is 0.166 µM (active); with HL-60, 0.0316 µM (active); in the assay with NCI-H460 it was 0.0968 µM (active); in the assay with SNB-19, 0.349 µM (active); in the assay with HOP-92, 21.9 µM (inactive); in the assay with SF-268, 1.05 µM (active). Besides, the GI50 with ACHN is 2.12 µM (inactive); in the assay with CCRF-CEM it was 0.229 µM (active); with UO-31, 3.34 µM (inactive); in the assay with SK-MEL-28 it was 5.09 µM (inactive); in the assay on MDA-MB-231, 0.256 µM (active); with MCF7 it was 0.208 µM (active). For the same compound, the GI50 with KM12 was 0.0933 µM (active).
